Measurements reported in ChEMBL document CHEMBL5678809, “Preclinical characterization of GLPG0634, a selective inhibitor of JAK1, for the treatment of inflammatory diseases” (J Immunol, 2013).
Calls of active or inactive are those of the source. The calls are words filed in the database; no cut-off is given here.

Columns and labels:
[1] = Oral bioavailability in CD-1 mouse at 5 mg/kg measured upto 24 hrs by LC-MS analysis; type: ADME, organism-based; settings: in vivo
[2] = molecular target: T1, Vascular endothelial growth factor receptor 3 (Homo sapiens, UniProt P35916); assay: Inhibition of Flt4 (unknown origin) at 1 uM relative to control
[3] = Oral bioavailability in Sprague-Dawley rat at 5 mg/kg measured upto 24 hrs by LC-MS analysis; type: ADME, organism-based; settings: in vivo
[4] = molecular target: Mitogen-activated protein kinase kinase kinase kinase 2 (Homo sapiens, UniProt Q12851); assay: Inhibition of GCK (unknown origin)
[5] = molecular target: Serine/threonine-protein kinase tousled-like 2 (Homo sapiens) (UniProt Q86UE8); assay: Inhibition of TLK2 (unknown origin) at 1 uM relative to control
[6] = molecular target: Protein-tyrosine kinase 2-beta (Homo sapiens) (UniProt Q14289); assay: Inhibition of Pyk2 (unknown origin) at 1 uM relative to control
[7] = molecular target: Dual specificity mitogen-activated protein kinase kinase 7 (Homo sapiens) (UniProt O14733); assay: Inhibition of MKK7 (unknown origin) at 1 uM relative to control
[8] = molecular target: Receptor-type tyrosine-protein kinase FLT3 (Homo sapiens) (UniProt P36888); assay: Inhibition of Flt3 (unknown origin) at 1 uM relative to control
[9] = Cmax in Sprague-Dawley rat at 1 mg/kg, iv measured upto 8 hrs by LC-MS analysis; type: ADME, organism-based; settings: in vivo
[10] = molecular target: Tyrosine-protein kinase CSK (Homo sapiens) (UniProt P41240); assay: Inhibition of CSK (unknown origin) at 1 uM relative to control
[11] = molecular target: Hepatocyte growth factor receptor (Homo sapiens) (UniProt P08581); assay: Inhibition of Met (unknown origin) at 1 uM relative to control
[12] = molecular target: Tyrosine-protein kinase receptor TYRO3 (Homo sapiens) (UniProt Q06418); assay: Inhibition of Rse (unknown origin) at 1 uM relative to control
Mus musculus [13] = assay: Antiarthritic activity against collagen-induced arthritis DBA/1J mouse model assessed as SCF level in serum at 50 mg/kg, po measured for 4 hrs by luminex analysis (reference value: 672.4 +/- 242.2 ng/ml); type: functional
Mus musculus [14] = assay: Antiarthritic activity against collagen-induced arthritis DBA/1J mouse model assessed as reduction in XCL1 level in serum at 50 mg/kg, po measured for 4 hrs by luminex analysis; type: functional, organism-based
Mus musculus [15] = assay: Antiarthritic activity against collagen-induced arthritis DBA/1J mouse model assessed as LIF level in serum at 50 mg/kg, po measured for 4 hrs by luminex analysis (reference value: 696 +/- 108 ng/ml); type: functional
[16] = molecular target: Death-associated protein kinase 1 (Homo sapiens, UniProt P53355); assay: Inhibition of DAPK1 (unknown origin)
Mus musculus [17] = assay: Antiarthritic activity against collagen-induced arthritis DBA/1J mouse model assessed as cartilage degradation by measuring lesion score in hind paw at 50 mg/kg, po administered twice daily for 14 days by histological analysis; type: functional, organism-based; settings: time 14.0 day
[18] = molecular target: NUAK family SNF1-like kinase 1 (Homo sapiens) (UniProt O60285); assay: Inhibition of ARK5 (unknown origin) at 1 uM relative to control
[19] = molecular target: LIM domain kinase 1 (Homo sapiens) (UniProt P53667); assay: Inhibition of LIMK1 (unknown origin) at 1 uM relative to control
Rattus norvegicus [20] = assay: Antiarthritic activity against collagen-induced arthritis Dark Agouti rat model assessed as reduction in inflammatory infiltration at 1 mg/kg, po administered 3 times a week and measured on day 7; type: functional, organism-based; settings: time 7.0 day
[21] = molecular target: T1, Vascular endothelial growth factor receptor 3; assay: Inhibition of Flt4 (unknown origin)
Rattus norvegicus [22] = assay: In vivo inhibition of JAK1 in Sprague-Dawley rat assessed as reduction in MX2 mRNA level at 1 to 10 mg/kg, po measured for 24 hrs by RT-PCR analysis; type: functional, organism-based; settings: dose 1-10 mg/kg
Mus musculus [23] = assay: Antiarthritic activity against collagen-induced arthritis DBA/1J mouse model assessed as reduction in infiltration of CD3 positive T cells in paw at 50 mg/kg, po administered twice daily for 14 days by immunohistochemistry analysis; type: functional, organism-based; settings: T-cell, time 14.0 day
[24] = Half life in Dark Agouti rat at 3 to 30 mg/kg, po; type: ADME, organism-based; settings: in vivo, dose 3-30 mg/kg
[25] = molecular target: Mitogen-activated protein kinase 13 (Homo sapiens) (UniProt O15264); assay: Inhibition of SAPK4 (unknown origin) at 1 uM relative to control
[26] = molecular target: Serine/threonine-protein kinase D2 (Homo sapiens) (UniProt Q9BZL6); assay: Inhibition of PKD2 (unknown origin) at 1 uM relative to control
[27] = molecular target: PAS domain-containing serine/threonine-protein kinase (Homo sapiens) (UniProt Q96RG2); assay: Inhibition of PASK (unknown origin) at 1 uM relative to control
[28] = molecular target: Insulin receptor-related protein (Homo sapiens) (UniProt P14616); assay: Inhibition of IRR (unknown origin) at 1 uM relative to control
[29] = molecular target: Serine/threonine-protein kinase TBK1 (Homo sapiens, UniProt Q9UHD2); assay: Inhibition of TBK1 (unknown origin)
Mus musculus [30] = assay: Antiarthritic activity against collagen-induced arthritis DBA/1J mouse model assessed as reduction in MX2 level in whole blood at 50 mg/kg, po measured for 2 weeks by luminex analysis; type: functional, organism-based
[31] = Half life in CD-1 mouse at 5 mg/kg, po measured upto 24 hrs by LC-MS analysis; type: ADME, organism-based; settings: in vivo
[32] = molecular target: Serine/threonine-protein kinase PAK 4 (Homo sapiens) (UniProt O96013); assay: Inhibition of PAK4 (unknown origin) at 1 uM relative to control
Mus musculus [33] = assay: Antiarthritic activity against collagen-induced arthritis DBA/1J mouse model assessed as MCP-5 level in serum at 50 mg/kg, po measured for 4 hrs by luminex analysis (reference value: 62.8 +/- 12.4 ng/ml); type: functional
[34] = molecular target: SRSF protein kinase 2 (Homo sapiens) (UniProt P78362); assay: Inhibition of SRPK2 (unknown origin) at 1 uM relative to control
[35] = molecular target: Serine/threonine-protein kinase 3 (Homo sapiens) (UniProt Q13188); assay: Inhibition of MST2 (unknown origin) at 1 uM relative to control
[36] = molecular target: Serine/threonine-protein kinase ULK2 (Homo sapiens) (UniProt Q8IYT8); assay: Inhibition of ULK2 (unknown origin) at 1 uM relative to control
[37] = molecular target: Ribosomal protein S6 kinase alpha-1 (Homo sapiens) (UniProt Q15418); assay: Inhibition of Rsk1 (unknown origin) at 1 uM relative to control
[38] = Volume of distribution at steady state in Sprague-Dawley rat at 1 mg/kg, iv measured upto 8 hrs by LC-MS analysis; type: ADME, organism-based; settings: in vivo, read-out: Vdss
Homo sapiens = species on record: Homo sapiens; assay: Inhibition of PKB3 (unknown origin) at 1 uM relative to control
[39] = molecular target: Cyclin-dependent kinase 1/cyclin B1 (Homo sapiens) (UniProt P06493+P14635); assay: Inhibition of CDK1/cyclinB (unknown origin) at 1 uM relative to control; type: protein-complex assay

T1 sequence (P35916 whole entry): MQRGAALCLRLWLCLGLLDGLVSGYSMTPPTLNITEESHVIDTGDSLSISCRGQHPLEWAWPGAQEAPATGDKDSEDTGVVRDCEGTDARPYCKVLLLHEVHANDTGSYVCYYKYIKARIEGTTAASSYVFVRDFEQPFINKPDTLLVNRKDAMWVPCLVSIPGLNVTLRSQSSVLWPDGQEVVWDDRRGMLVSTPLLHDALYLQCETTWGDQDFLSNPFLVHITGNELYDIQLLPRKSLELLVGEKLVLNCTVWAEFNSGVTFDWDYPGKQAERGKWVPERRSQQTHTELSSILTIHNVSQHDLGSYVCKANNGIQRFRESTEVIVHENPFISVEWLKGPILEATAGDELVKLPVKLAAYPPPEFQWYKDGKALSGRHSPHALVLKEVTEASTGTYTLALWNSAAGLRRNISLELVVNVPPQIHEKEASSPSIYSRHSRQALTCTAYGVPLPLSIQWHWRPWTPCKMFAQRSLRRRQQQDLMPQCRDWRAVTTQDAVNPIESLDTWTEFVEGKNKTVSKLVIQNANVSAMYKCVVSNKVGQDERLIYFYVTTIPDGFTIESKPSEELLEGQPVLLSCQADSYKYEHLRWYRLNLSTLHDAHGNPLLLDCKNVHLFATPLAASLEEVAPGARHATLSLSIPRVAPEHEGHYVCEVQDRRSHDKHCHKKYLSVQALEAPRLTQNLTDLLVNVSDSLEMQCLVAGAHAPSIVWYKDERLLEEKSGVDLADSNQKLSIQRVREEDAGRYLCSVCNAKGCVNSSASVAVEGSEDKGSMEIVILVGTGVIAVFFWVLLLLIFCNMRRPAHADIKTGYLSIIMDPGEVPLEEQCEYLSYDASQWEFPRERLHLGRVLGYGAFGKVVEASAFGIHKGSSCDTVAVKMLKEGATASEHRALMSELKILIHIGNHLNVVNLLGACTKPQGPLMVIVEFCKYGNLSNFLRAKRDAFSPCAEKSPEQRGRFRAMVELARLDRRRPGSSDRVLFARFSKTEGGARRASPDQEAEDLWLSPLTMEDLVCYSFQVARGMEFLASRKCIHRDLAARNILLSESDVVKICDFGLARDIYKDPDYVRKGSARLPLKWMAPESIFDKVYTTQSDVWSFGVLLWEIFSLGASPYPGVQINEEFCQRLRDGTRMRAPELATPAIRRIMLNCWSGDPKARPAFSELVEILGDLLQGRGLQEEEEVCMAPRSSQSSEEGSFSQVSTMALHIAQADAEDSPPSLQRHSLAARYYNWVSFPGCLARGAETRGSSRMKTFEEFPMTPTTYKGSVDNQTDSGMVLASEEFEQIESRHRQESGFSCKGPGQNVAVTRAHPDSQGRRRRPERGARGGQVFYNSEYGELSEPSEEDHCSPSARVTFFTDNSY
Serine/threonine-protein kinase TBK1, sequence (Q9UHD2 whole entry): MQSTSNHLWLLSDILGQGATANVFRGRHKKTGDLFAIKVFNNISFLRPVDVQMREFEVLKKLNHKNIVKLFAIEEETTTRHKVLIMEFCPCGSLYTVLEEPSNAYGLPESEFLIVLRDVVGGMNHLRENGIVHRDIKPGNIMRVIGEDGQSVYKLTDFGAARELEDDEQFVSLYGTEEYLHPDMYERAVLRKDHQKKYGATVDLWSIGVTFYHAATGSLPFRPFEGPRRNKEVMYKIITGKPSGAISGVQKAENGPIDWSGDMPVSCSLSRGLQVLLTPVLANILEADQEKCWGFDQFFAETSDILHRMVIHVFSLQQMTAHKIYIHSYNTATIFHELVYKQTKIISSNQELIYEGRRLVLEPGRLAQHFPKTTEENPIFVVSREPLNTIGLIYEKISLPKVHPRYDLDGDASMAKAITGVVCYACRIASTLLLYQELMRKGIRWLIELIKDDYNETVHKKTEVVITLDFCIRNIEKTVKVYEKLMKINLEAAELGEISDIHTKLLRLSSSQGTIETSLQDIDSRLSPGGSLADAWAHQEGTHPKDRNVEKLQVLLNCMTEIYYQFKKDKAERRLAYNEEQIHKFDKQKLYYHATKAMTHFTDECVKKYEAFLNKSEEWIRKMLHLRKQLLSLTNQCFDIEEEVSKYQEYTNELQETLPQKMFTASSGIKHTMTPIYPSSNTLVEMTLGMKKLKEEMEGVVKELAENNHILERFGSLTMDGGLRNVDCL
Tyrosine-protein kinase CSK (Homo sapiens), sequence (P41240 2-450 limits assumed): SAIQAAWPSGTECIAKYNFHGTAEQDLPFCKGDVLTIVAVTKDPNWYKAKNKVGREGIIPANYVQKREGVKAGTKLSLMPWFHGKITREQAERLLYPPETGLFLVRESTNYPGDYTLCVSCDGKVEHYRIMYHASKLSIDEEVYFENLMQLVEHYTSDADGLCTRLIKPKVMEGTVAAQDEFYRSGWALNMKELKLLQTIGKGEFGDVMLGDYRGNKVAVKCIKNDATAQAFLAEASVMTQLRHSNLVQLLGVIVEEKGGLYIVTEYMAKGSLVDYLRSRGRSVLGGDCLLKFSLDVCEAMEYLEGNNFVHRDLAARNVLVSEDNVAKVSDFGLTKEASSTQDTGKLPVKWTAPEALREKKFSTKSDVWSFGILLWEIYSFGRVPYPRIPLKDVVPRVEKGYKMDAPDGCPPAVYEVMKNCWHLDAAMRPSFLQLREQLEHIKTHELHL
Serine/threonine-protein kinase D2 (Homo sapiens), sequence (Q9BZL6 whole entry, the tested form may be a part): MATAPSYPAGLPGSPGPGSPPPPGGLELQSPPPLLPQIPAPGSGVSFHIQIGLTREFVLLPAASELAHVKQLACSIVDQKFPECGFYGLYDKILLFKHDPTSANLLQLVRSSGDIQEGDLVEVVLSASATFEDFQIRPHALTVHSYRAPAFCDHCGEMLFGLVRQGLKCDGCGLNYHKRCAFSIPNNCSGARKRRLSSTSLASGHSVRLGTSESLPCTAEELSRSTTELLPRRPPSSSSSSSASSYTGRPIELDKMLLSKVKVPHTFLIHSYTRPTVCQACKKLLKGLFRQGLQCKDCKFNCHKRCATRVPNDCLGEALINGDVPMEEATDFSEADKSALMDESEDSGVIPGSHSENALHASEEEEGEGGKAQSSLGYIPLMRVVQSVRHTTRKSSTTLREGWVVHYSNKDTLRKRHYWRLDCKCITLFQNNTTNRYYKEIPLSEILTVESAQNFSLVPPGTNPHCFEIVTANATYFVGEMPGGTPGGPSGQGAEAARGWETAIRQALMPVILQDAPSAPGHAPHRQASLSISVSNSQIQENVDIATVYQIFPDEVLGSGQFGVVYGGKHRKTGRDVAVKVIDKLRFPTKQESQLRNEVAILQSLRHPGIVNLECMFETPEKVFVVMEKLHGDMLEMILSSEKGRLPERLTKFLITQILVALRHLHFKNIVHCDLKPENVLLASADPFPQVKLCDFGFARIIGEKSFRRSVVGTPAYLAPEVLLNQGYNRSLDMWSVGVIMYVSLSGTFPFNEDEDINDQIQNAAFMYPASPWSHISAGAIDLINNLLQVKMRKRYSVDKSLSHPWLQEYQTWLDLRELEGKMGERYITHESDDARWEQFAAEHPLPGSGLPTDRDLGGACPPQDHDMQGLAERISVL
Serine/threonine-protein kinase PAK 4 (Homo sapiens), sequence (O96013 whole entry, looked up): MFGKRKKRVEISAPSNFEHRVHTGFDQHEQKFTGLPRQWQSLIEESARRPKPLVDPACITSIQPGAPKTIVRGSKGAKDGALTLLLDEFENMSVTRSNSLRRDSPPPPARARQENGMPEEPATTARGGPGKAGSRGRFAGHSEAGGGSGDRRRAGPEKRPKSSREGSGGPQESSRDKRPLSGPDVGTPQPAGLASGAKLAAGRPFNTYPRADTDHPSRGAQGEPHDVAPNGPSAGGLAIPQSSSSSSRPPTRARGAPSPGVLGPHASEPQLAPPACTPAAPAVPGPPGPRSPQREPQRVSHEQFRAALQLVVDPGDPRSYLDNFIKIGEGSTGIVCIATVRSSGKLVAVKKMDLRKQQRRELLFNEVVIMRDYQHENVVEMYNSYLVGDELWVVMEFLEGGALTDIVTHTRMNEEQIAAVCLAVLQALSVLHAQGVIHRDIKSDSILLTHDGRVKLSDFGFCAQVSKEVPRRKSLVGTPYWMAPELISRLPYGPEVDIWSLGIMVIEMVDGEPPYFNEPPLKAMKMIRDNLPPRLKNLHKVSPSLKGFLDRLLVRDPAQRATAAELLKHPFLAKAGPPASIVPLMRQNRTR
SRSF protein kinase 2 (Homo sapiens), sequence (P78362 whole entry, looked up): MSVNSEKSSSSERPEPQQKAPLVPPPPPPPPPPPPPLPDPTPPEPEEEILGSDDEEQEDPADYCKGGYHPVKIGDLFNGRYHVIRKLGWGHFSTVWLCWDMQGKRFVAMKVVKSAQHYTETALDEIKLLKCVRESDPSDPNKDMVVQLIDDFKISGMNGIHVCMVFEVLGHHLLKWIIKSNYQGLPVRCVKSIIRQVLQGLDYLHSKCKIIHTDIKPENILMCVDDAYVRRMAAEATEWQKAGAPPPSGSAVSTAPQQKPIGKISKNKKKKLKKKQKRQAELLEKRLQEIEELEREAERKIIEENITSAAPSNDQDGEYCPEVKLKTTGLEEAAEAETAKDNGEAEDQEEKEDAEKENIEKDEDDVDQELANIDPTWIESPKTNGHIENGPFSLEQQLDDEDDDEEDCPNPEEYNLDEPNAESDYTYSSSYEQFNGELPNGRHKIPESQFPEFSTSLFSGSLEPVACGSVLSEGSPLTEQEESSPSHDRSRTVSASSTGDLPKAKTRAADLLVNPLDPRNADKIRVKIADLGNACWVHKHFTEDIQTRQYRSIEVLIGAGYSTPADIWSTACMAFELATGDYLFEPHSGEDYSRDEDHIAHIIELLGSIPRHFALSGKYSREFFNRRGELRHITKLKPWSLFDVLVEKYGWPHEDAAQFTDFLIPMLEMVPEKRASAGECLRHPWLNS
Mitogen-activated protein kinase 13 (Homo sapiens), sequence (O15264 whole entry): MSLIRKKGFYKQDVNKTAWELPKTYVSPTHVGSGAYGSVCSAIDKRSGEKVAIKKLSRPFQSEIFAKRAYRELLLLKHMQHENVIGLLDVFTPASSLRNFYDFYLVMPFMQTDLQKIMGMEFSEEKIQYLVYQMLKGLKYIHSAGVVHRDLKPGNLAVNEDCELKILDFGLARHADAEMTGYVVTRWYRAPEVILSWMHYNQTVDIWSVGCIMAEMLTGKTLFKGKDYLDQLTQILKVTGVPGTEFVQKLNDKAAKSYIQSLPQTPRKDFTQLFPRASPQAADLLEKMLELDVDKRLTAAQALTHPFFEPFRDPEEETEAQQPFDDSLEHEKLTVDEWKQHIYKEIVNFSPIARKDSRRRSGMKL

bioavailability [1]: ~100%
inhibition [2]: 77%
bioavailability [3]: 45%
IC50 [4]: > 10000 nM
inhibition [5]: -6%
inhibition [6]: -8%
inhibition [7]: 13%
inhibition [8]: 58%
Cmax [9]: 1410 ng/mL
inhibition [10]: 3%
inhibition [11]: -3%
inhibition [12]: 4%
inhibition [18]: 1%
inhibition [19]: -1%
IC50 [21]: 274 nM
half-life [24]: ~4 h
inhibition [25]: -10%
inhibition [26]: -10%
inhibition [27]: 1%
inhibition [28]: -5%
IC50 [29]: 1790 nM
half-life [31]: 1.7 h
inhibition [32]: 0%
inhibition [34]: -10%
inhibition [35]: -10%
inhibition [36]: -8%
inhibition [37]: 2%
Vd [38]: 1.8 L/kg
inhibition (Homo sapiens): -6%
inhibition [39]: 7%
SMILES: O=C(Nc1nc2cccc(-c3ccc(CN4CCS(=O)(=O)CC4)cc3)n2n1)C1CC1 [FILGOTINIB]
Activity (Mus musculus [13]): 422.6 ng/mL
Activity (Mus musculus [14]): Active
Activity (Mus musculus [15]): 743.8 ng/mL
IC50 [16]: > 10000 nM
Activity (Mus musculus [17]): Active
Activity (Rattus norvegicus [20]): Active
inhibition (Rattus norvegicus [22]): Active
Activity (Mus musculus [23]): Active
Activity (Mus musculus [30]): inactive
Activity (Mus musculus [33]): 36.4 ng/mL
